Assay results from patent US12291494B2, “Methods of treating fibrosis” (Nogra Pharma Limited, priority 2012, dated 2025).
“Also recorded” adds a separate entry of the source.

What was measured:
[1] = tested on: main markers of fibrosis (Collagen I-III, α-SMA, TGF-β1, Smad3, CTGF); assay: DSS chronic colitis (Ex. 7): immunohistochemistry of colon; type: in vivo, mice; details: DSS+GED vs DSS, listed as GED
Procedure: Tissue specimens from the colon, dissected and fixed in fresh 4% formaldehyde (FA)/PBS solution for 3 hours at room temperature, were dehydrated in a graded ethanol series, and embedded in low-temperature-fusion paraffin. 3-μm-thick sections were incubated in a solution of methanol and 3% hydrogen peroxide for 45 min.
Samples were incubated overnight with specific antibodies against α-smooth muscle actin (α-SMA, Abcam), collagen types I-III (Abcam), TGF-β1 (Abcam), connective tissue growth factor (CTGF) (Abcam), pSmad3 and Smad3 (Cell Signaling), Smad7 (Imgenex) PPARγ (Cell Signaling). The samples were washed 5 min with PBS and incubated with streptavidin-biotin-peroxidase conjugated secondary antibody (Dako LSAB Corporation, cod K0675, Dako-Cytomation, Milano). After one wash in PBS for 10 min the sections are subject to incubation with 3,3-diaminobenzidine-tetrahydrochloride for 1-3 min. The counterstaining of nuclei was obtained by Hematoxilin Eosin. The specificity of immune reaction was effected keeping off the primary antibodies. Finally the samples were stained with hematoxylin of Mayer and observed under the Olympus BX51 Light Microscope (Olympus, Optical Co. Ltd., Tokyo, Japan).

CTGF = assay: DSS chronic colitis (Ex. 7): Western blot, CTGF; type: in vivo, mice; details: percentage of optical density vs control group, normalized with GAPDH; DSS 115.1%±16.88%
Procedure: (§1) 0.5 cm of frozen colonic samples were cut and mechanically homogenized in RIPA Buffer containing 50 mMTrisHCl pH 7.6, 150 mMNaCl, 1.5 mM MgCl2, 5 mM EDTA, 1% Triton-X and 10% Glycerol, supplemented with 100 mM Sodium Fluoride (NaF), 2 mM Sodium Orthovanadate (Na3VO4), 10 mM Sodium Pyrophosphate (NaPPi), 1 mMphenylmethanesulphone (PMSF) and a classical protease-inhibitor cocktail containing 10 μg/mL Leupeptin and Aprotinin.
30 μg of protein for each sample were separated by PAGE and electroblotted. 100% pure Nitrocellulose membranes were incubated (according with a specific protocol for each antibody) with primary antibodies directed against TGF-β1, CTGF, α-SMA, Collagen-I and GAPDH (purchased from Abcam, Cambridge, UK; 1:1000 for 2 h at RT), and IL-13 (purchased from Antibodies online; 1:1000 for 2 h at RT) diluted in 5% non fat-milk in 0.1% TBS-t. […] Optical density of target bands was determined using a computer-assisted densitometer and the ImageJ public domain software (W. S., Rasband, ImageJ, U. S. National Institutes of Health, Bethesda, MD; http://rsb.info.nih.gov/ij/, 1997-2011). Tissue levels were expressed as units of Optical Density (OD) per quantity of total proteins, normalizing with internal control GAPDH and the results were expressed as percentage of control groups.

α-SMA [2] = assay: Liver gene expression by quantitative Real Time PCR: α-SMA; type: in vivo, mice; details: liver mRNA, normalized to β-actin; CCl4 group 65.51 ± 22.24
Procedure: The effect of administration of compound 34 (GED) and the specific CB2 agonist (JWH-133) was evaluated on the level of gene expression of cytokines (IL-1β, TNF-α) and genes involved in the mechanism of fibrosis by quantitative Real Time PCR.
Total RNA was isolated from livers using Rneasy kit (Macherey Nagel, Hoerdt, France) according to the manufacturer's instructions. RNA quantification was performed using spectrophotometry. After treatment at 37° C. for 30 min with 20-50 units of RNase-free DNase I (Roche Diagnostics Corporation, Indianapolis, IN, USA), oligo-dT primers (Roche Diagnostics Corporation, Indianapolis, USA) were used to synthesize single-stranded cDNA. mRNAs were quantified using SYBR green Master Mix (Applera, Courtaboeuf, France) with murine specific oligonucleotides (see Table 2) in a GeneAmp Abiprism 7000 (Applera, Courtaboeuf, France). In each assay, calibrated and no-template controls were included. Each sample was run in triplicate. SYBR green dye intensity was analyzed using the Abiprism 7000 SDS software (Applera, Courtaboeuf, France). All results were normalized to the unaffected housekeeping gene β-actin.

[3] = tested on: liver biochemical parameters in the serum of mice (AST, ALT, Gamma GT, Alkaline phosphatase); assay: Liver blood enzyme analysis in serum; type: in vivo; details: 4 days after the last administration of CCl4
Procedure: The effect of oral administration of compound 34 (GED) and the specific CB2 agonist (JWH-133) was evaluated on different liver biochemical parameters in the serum of mice: hepatic enzymes ([…]), Gamma GT and the Alkaline phosphatase.

α-SMA [4] = assay: DSS intestinal fibrosis study: Western blot of colon, α-SMA; type: in vivo, mice; details: whole colon, OD normalized with GAPDH, expressed as percentage of control groups; DSS 125.4 ± 19.45
Procedure: as §1, with “For the Western blot analysis, 0.5” for “0.5”, “were” for “were cut and mechanically”, “mM Tris HCl” for “mMTrisHCl”, “mM NaCl,” for “mMNaCl,”, “mM phenylmethanesulphone” for “mMphenylmethanesulphone”
For each sample, 30 μg of protein was separated by PAGE and electroblotted. Nitrocellulose membranes (100% pure) were incubated (according with a specific protocol for each antibody) with primary antibodies directed against CTGF, Collagen-I and GAPDH (purchased from Abcam, Cambridge, UK; 1:1000 for 2 h at RT), diluted in 5% non-fat milk in 0.1% TBS-t. […] Optical density of target bands was determined using a computer-assisted densitometer and the ImageJ public domain software (W. S., Rasband, ImageJ, U. S. National Institutes of Health, Bethesda, MD; http://rsb.info.nih.gov/ij/, 1997-2011). Tissue levels were expressed as units of Optical Density (OD) per quantity of total proteins, normalized with internal control GAPDH and the results were expressed as percentage of control groups.

Structure (SMILES): COC(Cc1ccc(N)cc1)C(=O)O (racemic) [Compound 34, (±)-2-methoxy-3-(4′-aminophenyl) propionic acid]
- Collagen I-III and α-SMA (immunohistochemistry) ([1]; FIG. 13A, 13B): marked reduction; also recorded: significant reduction
- TGF-β1, Smad, CTGF (immunohistochemistry) ([1]; FIG. 15 / data not shown): marked reduction; also recorded: significant reduction
- CTGF expression level (Western blot) (CTGF): 55.57%±17.53%
- α-SMA (α-SMA [2]): 42.81 ± 14.81
- enhancement of blood liver enzymes (AST, ALT, Alk P) / liver toxicity [3]: not associated with any enhancement of blood liver enzymes; also recorded: without liver toxicity
- α-SMA (Western blot) (α-SMA [4]): 97.88 ± 15.66
